According to US10947271B2, “Antibacterial agents” (THE UNIVERSITY OF QUEENSLAND, priority 2014, dated 2021):

Legend:
Format in all cases: cell-based
Settings in all cases: 24 h incubation, visual reading
[1] = test system: Staphylococcus aureus MRSA ATCC 43300; test: MIC assay, S. aureus MRSA ATCC 43300
Method: (§1) Antimicrobial activity of compounds was tested against a number of bacterial strains, including Staphylococcus aureus (MRSA ATCC 43300, GISA NRS17, VISA NRS1, MRSA clinical isolate, daptomycin resistant clinical isolate), Streptococcus pneumoniae (MDR ATCC 700677), Enterococcus faecalis (VanA clinical isolate) and Enterococcus faecium (MDR Van A ATCC 51559).
(§2) All compounds were prepared to 160 μg/ml solution in water from a stock solution of 1 mM concentration.
(§3) The compounds, along with standard antibiotics were serially diluted twofold across the wells of 96-well non-binding surface plates (NBS, Corning). Standards ranged from 64 μg/ml to 0.03 μg/ml and compounds from 8 μg/ml to 0.003 μg/ml with final volumes of 50 μL per well. Gram positive bacteria were cultured in Muller Hinton broth (MHB) (Bacto laboratories, Cat. no. 211443) at 37° C. overnight. A sample of each culture was then diluted 40-fold in fresh MHB broth and incubated at 37° C. for 2-3 hrs. The resultant mid-log phase cultures were diluted to the final concentration of 5×10e5 CFU/mL, then 50 μL was added to each well of the compound-containing 96-well plates. All the plates were covered and incubated at 37° C. for 24 h. MICs were the lowest concentration showing no visible growth.
(§4) MICs were determined visually at 24 hr incubation and the MIC was defined as the lowest concentration with which no growth was visible after incubation. Both MIC and MBC were determined by visual inspection only.

[2] = test system: Streptococcus pneumoniae MDR ATCC 700677; test: MIC assay, S. pneumoniae MDR ATCC 700677
Method: as §1, §2, §3, §4

[3] = test system: Enterococcus faecium MDR Van A ATCC 51559; test: MIC assay, E. faecium MDR Van A ATCC 51559
Method: as §1, §2, §3, §4

SMILES | Minimum Inhibitory Concentration (MIC) Staph. aureus ATCC43300 [1] | Minimum Inhibitory Concentration (MIC) S. pneumoniae ATCC 700677 [2] | Minimum Inhibitory Concentration (MIC) E. faecium ATCC51559 [3]
CNC(=O)[C@H](CCCCNC(=O)[C@H]1NC(=O)[C@H]2NC(=O)[C@H](NC(=O)[C@@H]3NC(=O)[C@H](CC(N)=O)NC(=O)[C@H](NC(=O)[C@@H](CC(C)C)NC)[C@H](O)c4ccc(c(Cl)c4)Oc4cc3cc(c4O[C@@H]3O[C@H](CO)[C@@H](O)[C@H](O)[C@H]3O[C@H]3C[C@](C)(N)[C@H](O)[C@H](C)O3)Oc3ccc(cc3Cl)[C@H]2O)c2ccc(O)c(c2)-c2c(O)cc(O)cc21)NC(=O)[C@H](CCCCN)NC(=O)[C@H](CCCCN)NS(=O)(=O)c1ccc(C)cc1 [MCC_000764] | xx (xx = 1-4) | xx (xx = 1-4) | x (x = >4)
CNC(=O)[C@H](CCCCNC(=O)[C@H]1NC(=O)[C@H]2NC(=O)[C@H](NC(=O)[C@@H]3NC(=O)[C@H](CC(N)=O)NC(=O)[C@H](NC(=O)[C@@H](CC(C)C)NC)[C@H](O)c4ccc(c(Cl)c4)Oc4cc3cc(c4O[C@@H]3O[C@H](CO)[C@@H](O)[C@H](O)[C@H]3O[C@H]3C[C@](C)(N)[C@H](O)[C@H](C)O3)Oc3ccc(cc3Cl)[C@H]2O)c2ccc(O)c(c2)-c2c(O)cc(O)cc21)NC(=O)[C@H](CCCCN)NC(=O)[C@H](CCCCN)NC(=O)[C@H](CCCCNC(=O)Cc1ccc(-c2ccccc2)cc1)NC(=O)Cc1ccc(-c2ccccc2)cc1 [MCC_000652] | xxxxx (xxxxx = <0.01) | xxxxx (xxxxx = <0.01) | xxx (xxx = 0.1-<1)
CCCCCCCCCC(=O)N[C@@H](CCCNC(=N)N)C(=O)N[C@@H](CCCNC(=N)N)C(=O)NCCCNC(=O)[C@H]1NC(=O)[C@H]2NC(=O)[C@H](NC(=O)[C@@H]3NC(=O)[C@H](CC(N)=O)NC(=O)[C@H](NC(=O)[C@@H](CC(C)C)NC)[C@H](O)c4ccc(c(Cl)c4)Oc4cc3cc(c4O[C@@H]3O[C@H](CO)[C@@H](O)[C@H](O)[C@H]3O[C@H]3C[C@](C)(N)[C@H](O)[C@H](C)O3)Oc3ccc(cc3Cl)[C@H]2O)c2ccc(O)c(c2)-c2c(O)cc(O)cc21 [MCC_005482] | xxxxx (xxxxx = <0.01) | xxxxx (xxxxx = <0.01) | xx (xx = 1-4)
CCCCCCCC(=O)N[C@@H](CCCCN)C(=O)N[C@@H](CCCCN)C(=O)NCCCNC(=O)[C@H]1NC(=O)[C@H]2NC(=O)[C@H](NC(=O)[C@@H]3NC(=O)[C@H](CC(N)=O)NC(=O)[C@H](NC(=O)[C@@H](CC(C)C)NC)[C@H](O)c4ccc(c(Cl)c4)Oc4cc3cc(c4O[C@@H]3O[C@H](CO)[C@@H](O)[C@H](O)[C@H]3O[C@H]3C[C@](C)(N)[C@H](O)[C@H](C)O3)Oc3ccc(cc3Cl)[C@H]2O)c2ccc(O)c(c2)-c2c(O)cc(O)cc21 [MCC_005196] | xxx (xxx = 0.1-<1) | xxx (xxx = 0.1-<1) | xx (xx = 1-4)
CCCCCCCCCCCCCC(=O)NCCCC[C@H](NC(=O)CCCCCCCCCCCCC)C(=O)N[C@@H](CCCCN)C(=O)N[C@@H](CCCCN)C(=O)N[C@@H](CCCCNC(=O)[C@H]1NC(=O)[C@H]2NC(=O)[C@H](NC(=O)[C@@H]3NC(=O)[C@H](CC(N)=O)NC(=O)[C@H](NC(=O)[C@@H](CC(C)C)NC)[C@H](O)c4ccc(c(Cl)c4)Oc4cc3cc(c4O[C@@H]3O[C@H](CO)[C@@H](O)[C@H](O)[C@H]3O[C@H]3C[C@](C)(N)[C@H](O)[C@H](C)O3)Oc3ccc(cc3Cl)[C@H]2O)c2ccc(O)c(c2)-c2c(O)cc(O)cc21)C(=O)NC [MCC_000771] | x (x = >4) | x (x = >4) | x (x = >4)
CCCCCCCCCCCCCC(=O)NCC(=O)N[C@@H](CO)C(=O)N[C@@H](CCCCN)C(=O)N[C@@H](CCCCN)C(=O)N[C@@H](CCCCN)C(=O)N[C@@H](CCCCNC(=O)[C@H]1NC(=O)[C@H]2NC(=O)[C@H](NC(=O)[C@@H]3NC(=O)[C@H](CC(N)=O)NC(=O)[C@H](NC(=O)[C@@H](CC(C)C)NC)[C@H](O)c4ccc(c(Cl)c4)Oc4cc3cc(c4O[C@@H]3O[C@H](CO)[C@@H](O)[C@H](O)[C@H]3O[C@H]3C[C@](C)(N)[C@H](O)[C@H](C)O3)Oc3ccc(cc3Cl)[C@H]2O)c2ccc(O)c(c2)-c2c(O)cc(O)cc21)C(=O)O [MCC_000380] | xxxx (xxxx = 0.01-<0.1) | xxxxx (xxxxx = <0.01) | –
CCCCCCCCCCCC(=O)NC(CCCCN)C(=O)NC(CCCCN)C(=O)NC(CCCCNC(=O)C1NC(=O)C2NC(=O)C(NC(=O)C3NC(=O)C(CC(N)=O)NC(=O)C(NC(=O)C(CC(C)C)NC)C(O)c4ccc(c(Cl)c4)Oc4cc3cc(c4OC3OC(CO)C(O)C(O)C3OC3CC(C)(N)C(O)C(C)O3)Oc3ccc(cc3Cl)C2O)c2ccc(O)c(c2)-c2c(O)cc(O)cc21)C(=O)NC (centres unmarked) [MCC_000493] | xxxxx (xxxxx = <0.01) | xxxxx (xxxxx = <0.01) | xx (xx = 1-4)
CCCCCCCCCCCCCC(=O)N[C@@H](CCCCN)C(=O)N[C@@H](CCCCN)C(=O)N[C@@H](Cc1cn(CCCNC(=O)[C@H]2NC(=O)[C@H]3NC(=O)[C@H](NC(=O)[C@@H]4NC(=O)[C@H](CC(N)=O)NC(=O)[C@H](NC(=O)[C@@H](CC(C)C)NC)[C@H](O)c5ccc(c(Cl)c5)Oc5cc4cc(c5O[C@@H]4O[C@H](CO)[C@@H](O)[C@H](O)[C@H]4O[C@H]4C[C@](C)(N)[C@H](O)[C@H](C)O4)Oc4ccc(cc4Cl)[C@H]3O)c3ccc(O)c(c3)-c3c(O)cc(O)cc32)nn1)C(N)=O [MCC_000979] | xxxxx (xxxxx = <0.01) | xxxxx (xxxxx = <0.01) | xxx (xxx = 0.1-<1)
CCCCCCCCCC(=O)N[C@@H](CCCCN1CCCCC1)C(=O)N[C@@H](CCCCNC(=O)[C@H]1NC(=O)[C@H]2NC(=O)[C@H](NC(=O)[C@@H]3NC(=O)[C@H](CC(N)=O)NC(=O)[C@H](NC(=O)[C@@H](CC(C)C)NC)[C@H](O)c4ccc(c(Cl)c4)Oc4cc3cc(c4O[C@@H]3O[C@H](CO)[C@@H](O)[C@H](O)[C@H]3O[C@H]3C[C@](C)(N)[C@H](O)[C@H](C)O3)Oc3ccc(cc3Cl)[C@H]2O)c2ccc(O)c(c2)-c2c(O)cc(O)cc21)C(=O)O [MCC_007328] | xxx (xxx = 0.1-<1) | xxx (xxx = 0.1-<1) | x (x = >4)
CCCCCCCCCCC(=O)NCCCC[C@H](NC(=O)CCCCCCCCCC)C(=O)N[C@@H](CCCCN)C(=O)N[C@@H](CCCCN)C(=O)N[C@@H](CCCCNC(=O)[C@H]1NC(=O)[C@H]2NC(=O)[C@H](NC(=O)[C@@H]3NC(=O)[C@H](CC(N)=O)NC(=O)[C@H](NC(=O)[C@@H](CC(C)C)NC)[C@H](O)c4ccc(c(Cl)c4)Oc4cc3cc(c4O[C@@H]3O[C@H](CO)[C@@H](O)[C@H](O)[C@H]3O[C@H]3C[C@](C)(N)[C@H](O)[C@H](C)O3)Oc3ccc(cc3Cl)[C@H]2O)c2ccc(O)c(c2)-c2c(O)cc(O)cc21)C(=O)O [MCC_000231] | xx (xx = 1-4) | xx (xx = 1-4) | x (x = >4)
CNC(CC(C)C)C(=O)NC1C(=O)NC(CC(N)=O)C(=O)NC2C(=O)NC3C(=O)NC(C(=O)NC(C(=O)NCCCNC(=O)C(CCCCN)NC(=O)c4ccc(C(F)(F)F)cc4)c4cc(O)cc(O)c4-c4cc3ccc4O)C(O)c3ccc(c(Cl)c3)Oc3cc2cc(c3OC2OC(CO)C(O)C(O)C2OC2CC(C)(N)C(O)C(C)O2)Oc2ccc(cc2Cl)C1O (centres unmarked) [MCC_007408] | xxxx (xxxx = 0.01-<0.1) | xxx (xxx = 0.1-<1) | x (x = >4)
CCCCCOc1ccc(C(=O)NCCCCC(NC(=O)c2ccc(OCCCCC)cc2)C(=O)NC(CCCCN)C(=O)NC(CCCCNC(=O)C2NC(=O)C3NC(=O)C(NC(=O)C4NC(=O)C(CC(N)=O)NC(=O)C(NC(=O)C(CC(C)C)NC)C(O)c5ccc(c(Cl)c5)Oc5cc4cc(c5OC4OC(CO)C(O)C(O)C4OC4CC(C)(N)C(O)C(C)O4)Oc4ccc(cc4Cl)C3O)c3ccc(O)c(c3)-c3c(O)cc(O)cc32)C(=O)NC)cc1 (centres unmarked) [MCC_000502] | xxxxx (xxxxx = <0.01) | xxxxx (xxxxx = <0.01) | xxx (xxx = 0.1-<1)
CCCCCCCCCCC(=O)N[C@@H](CCCCN)C(=O)NCCNC(=O)[C@H]1NC(=O)[C@H]2NC(=O)[C@H](NC(=O)[C@@H]3NC(=O)[C@H](CC(N)=O)NC(=O)[C@H](NC(=O)[C@@H](CC(C)C)NC)[C@H](O)c4ccc(c(Cl)c4)Oc4cc3cc(c4O[C@@H]3O[C@H](CO)[C@@H](O)[C@H](O)[C@H]3O[C@H]3C[C@](C)(N)[C@H](O)[C@H](C)O3)Oc3ccc(cc3Cl)[C@H]2O)c2ccc(O)c(c2)-c2c(O)cc(O)cc21 [MCC_005163] | xxxxx (xxxxx = <0.01) | xxxx (xxxx = 0.01-<0.1) | x (x = >4)
